# Measurements as given in patent US20240247080A1, “GLP1/GIP/NPY2 RECEPTOR TRIPLE AGONISTS” (Boehringer Ingelheim International GmbH, priority 2022, published 2024).
# pEC50: −log10 of the molar value. Where two headings read alike, the source gives them in different places. Starred links: 1 amine or outer side, 2 acyl side, 3 side chain; linkers in the order of their positions; H or OH if unused. Non-standard residues stand in square brackets, D forms with d. Groups on a side chain read outwards from the residue. No end group written: not given here. *: point of attachment. C20 diacid = O=C(O)CCCCCCCCCCCCCCCCCCC(=O)*; C18 diacid = O=C(O)CCCCCCCCCCCCCCCCC(=O)*; γGlu = O=C(O)[C@H](CCC(=O)[*:2])N[*:1]; εLys = N[C@@H](CCCCN[*:1])C(=O)[*:2]; NMeR = CN[C@@H](CCCNC(=N)N)C(=O)O; Tle = CC(C)(C)[C@H](N)C(=O)O; AEEA = NCCOCCOCC(=O)O; Aib = CC(C)(N)C(=O)O
# Experiments:
# Type in all cases: cell-based
# Settings in all cases: CreLuc reporter gene assay
# hGLP1R = molecular target: T1, hGLP1R (Homo sapiens, UniProt P43220); test: hGLP1R CreLuc reporter gene assay in 0.5% and 100% plasma
# T1 construct: expressed in transfected cells; host or cells: HEK-293 cells carrying a CRE-luciferase reporter gene
# Outline: (§1)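 HEK cells (GLP-1R, NPY2R) or CHO cells (GIPR) carrying a CRE-luciferase reporter, incubated 4 h at 37 °C with peptides in HBSS/20 mM HEPES pH 7.4 plus 0.5% human plasma, or in 100% plasma. Luminescence read; EC50 from 8-point variable-slope sigmoid fits.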
# hGIPR = molecular target: T2, hGIPR (Homo sapiens, UniProt P48546); test: hGIPR CreLuc reporter gene assay in 0.5% and 100% plasma
# T2 construct: expressed in transfected cells; host or cells: CHO cells carrying a CRE-luciferase reporter gene
# T2 sequence (P48546 22-466): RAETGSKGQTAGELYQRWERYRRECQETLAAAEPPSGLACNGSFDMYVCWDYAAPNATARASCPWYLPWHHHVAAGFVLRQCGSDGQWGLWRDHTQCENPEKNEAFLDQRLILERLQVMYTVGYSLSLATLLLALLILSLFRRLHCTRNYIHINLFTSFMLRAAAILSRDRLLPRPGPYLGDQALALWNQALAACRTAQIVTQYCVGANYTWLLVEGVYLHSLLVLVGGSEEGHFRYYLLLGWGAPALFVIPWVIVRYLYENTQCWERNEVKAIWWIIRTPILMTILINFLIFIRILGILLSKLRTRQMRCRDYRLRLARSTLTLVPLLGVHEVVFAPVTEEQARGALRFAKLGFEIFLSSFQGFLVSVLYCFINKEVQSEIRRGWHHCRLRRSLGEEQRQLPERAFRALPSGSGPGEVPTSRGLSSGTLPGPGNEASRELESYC
# Outline: as §1
# hNPY2R = molecular target: T3, hNPY2R (Homo sapiens, UniProt P49146); test: hNPY2R CreLuc reporter gene assay in 0.5% and 100% plasma
# T3 construct: expressed in transfected cells; host or cells: HEK-293 cells carrying a CRE-luciferase reporter gene
# T3 sequence (P49146 1-381): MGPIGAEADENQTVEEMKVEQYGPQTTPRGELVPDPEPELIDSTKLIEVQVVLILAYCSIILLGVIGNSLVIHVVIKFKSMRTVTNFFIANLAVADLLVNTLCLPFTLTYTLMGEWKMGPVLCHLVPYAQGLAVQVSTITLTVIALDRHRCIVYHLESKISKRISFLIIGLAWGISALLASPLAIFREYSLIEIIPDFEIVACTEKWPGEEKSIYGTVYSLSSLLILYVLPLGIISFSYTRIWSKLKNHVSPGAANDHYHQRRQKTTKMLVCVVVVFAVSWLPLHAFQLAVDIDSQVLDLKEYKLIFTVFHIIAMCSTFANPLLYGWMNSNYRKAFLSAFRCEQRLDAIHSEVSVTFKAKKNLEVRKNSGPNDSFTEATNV
# Outline: as §1
# [1] = 0.5% human plasma, read-out: hGLP1R 0.5% hP
# [2] = 0.5% human plasma, read-out: hGIPR 0.5% hP
# [3] = 100% human plasma, read-out: hGIPR 100% hP
# [4] = 0.5% human plasma, read-out: hNPY2R 0.5% hP
# [5] = 100% human plasma, read-out: hNPY2R 100% hP
# [6] = 100% human plasma, read-out: hGLP1R 100% hP
# T1 sequence (P43220 24-463): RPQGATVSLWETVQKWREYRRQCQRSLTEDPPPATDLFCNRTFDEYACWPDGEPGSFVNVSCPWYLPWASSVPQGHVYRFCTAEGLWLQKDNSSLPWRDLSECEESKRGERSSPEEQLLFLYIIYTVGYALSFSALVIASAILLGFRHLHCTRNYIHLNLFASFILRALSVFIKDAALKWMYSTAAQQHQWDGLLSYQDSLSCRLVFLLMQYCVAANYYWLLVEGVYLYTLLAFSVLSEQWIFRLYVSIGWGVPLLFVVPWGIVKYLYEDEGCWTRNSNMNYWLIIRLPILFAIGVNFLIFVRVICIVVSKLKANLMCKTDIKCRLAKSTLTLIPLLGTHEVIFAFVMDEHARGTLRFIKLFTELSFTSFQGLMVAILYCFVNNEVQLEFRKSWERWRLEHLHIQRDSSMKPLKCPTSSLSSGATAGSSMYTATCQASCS
Substance,pEC50 (hGLP1R; [1]),pEC50 (hGIPR; [2]),pEC50 (hGIPR; [3]),pEC50 (hNPY2R; [4]),pEC50 (hNPY2R; [5]),pEC50 (hGLP1R; [6])
"H-Y[Aib]EGTFTSDYSI[Aib]LEKQAQ[Aib]AFVEWLIK([εLys-γGlu-γGlu-γGlu-γGlu-γGlu-γGlu-C20 diacid])GGPSEGASLRHYYNWLTRQ[NMeR]Y-NH2 [Compound 236, Y-Aib-E-G-T-F-T-S-D-Y-S-I-Aib-L-E-K-Q-A-Q-Aib-A-F-V-E-W-L-I-K(1,3)-G-G-P-S-E-G-A-S-L-R-H-Y-Y-N-W-L-T-R-Q-NMeR-Y-NH2.C20DA-gGlu-gGlu-gGlu-gGlu-gGlu-gGlu-eLys(1,2)]",9.59,9.52,–,7.51,–,–
"H-Y[Aib]EGTFTSDYSI[Aib]LEKQAQ[Aib]AFVEWLIK([εLys-γGlu-γGlu-γGlu-γGlu-γGlu-γGlu-C20 diacid])GGPSSGASLRHY[Aib]NR[Aib]TRQRY-NH2 [Compound 18, Y-Aib-E-G-T-F-T-S-D-Y-S-I-Aib-L-E-K-Q-A-Q-Aib-A-F-V-E-W-L-I-K(1,3)-G-G-P-S-S-G-A-S-L-R-H-Y-Aib-N-R-Aib-T-R-Q-R-Y-NH2.C20DA-gGlu-gGlu-gGlu-gGlu-gGlu-gGlu-eLys(1,2)]",9.92,9.44,–,7.07,–,–
"Y[Aib]EGTFTSDYSI[Aib]LEKQAQ[Aib]AFVQWLIK([Glu-γGlu-γGlu-γGlu-γGlu-C20 diacid])GGPSEGASLRHYYNWLTRQRY-NH2 [Compound 243, Y-Aib-E-G-T-F-T-S-D-Y-S-I-Aib-L-E-K-Q-A-Q-Aib-A-F-V-Q-W-L-I-K(1,3)-GGPSEGASLRHYYNWLTRQRY-NH2.C20DA-gGlu-gGlu-gGlu-gGlu-Glu(1,2)]",9.92,9.27,–,–,7.30,–
"H-Y[Aib]EGTFTSDYSI[Aib]LEKQAQ[Aib]AFVQWLIK([εLys-γGlu-γGlu-γGlu-γGlu-γGlu-γGlu-C20 diacid])GGQRSYASLRHYYNWLTRQRY-NH2 [Compound 3, Y-Aib-E-G-T-F-T-S-D-Y-S-I-Aib-L-E-K-Q-A-Q-Aib-A-F-V-Q-W-L-I-K(1,3)-GGQRSYASLRHYYNWLTRQRY-NH2.C20DA-gGlu-gGlu-gGlu-gGlu-gGlu-gGlu-eLys(1,2)]",9.35,9.28,–,–,7.64,–
"H-Y[Aib]EGTFTSDYSI[Aib]LEKQAQ[Aib]AFVEWLIK([εLys-γGlu-γGlu-γGlu-γGlu-γGlu-γGlu-C20 diacid])GGPSSGASLRHYINWLTRQRY-NH2 [Compound 106, Y-Aib-E-G-T-F-T-S-D-Y-S-I-Aib-L-E-K-Q-A-Q-Aib-A-F-V-E-W-L-I-K(1,3)-GGPSSGASLRHYINWLTRQRY-NH2.C20DA-gGlu-gGlu-gGlu-gGlu-gGlu-gGlu-eLys(1,2)]",9.85,9.59,–,7.69,–,–
"H-Y[Aib]EGTFTSDYSI[Aib]LEKQAQ[Aib]AFVQWLIK([Glu-Glu-Glu-Glu-C18 diacid])GGPSEGASLRHYYNWLTRQRY-NH2 [Compound 281, Y-Aib-E-G-T-F-T-S-D-Y-S-I-Aib-L-E-K-Q-A-Q-Aib-A-F-V-Q-W-L-I-K(1,3)-GGPSEGASLRHYYNWLTRQRY-NH2.C18DA-E-E-E-E(1,2)]",10.15,9.55,9.16,7.64,–,8.75
"H-Y[Aib]EGTFTSDYSI[Aib]LEKQAQ[Aib]AFVEWLIK([εLys-γGlu-γGlu-γGlu-γGlu-γGlu-γGlu-C20 diacid])GGPSSGASLR[Tle]YYNWLTRQRY-NH2 [Compound 119, Y-Aib-E-G-T-F-T-S-D-Y-S-I-Aib-L-E-K-Q-A-Q-Aib-A-F-V-E-W-L-I-K(1,3)-G-G-P-S-S-G-A-S-L-R-Tle-Y-Y-N-W-L-T-R-Q-R-Y-NH2.C20DA-gGlu-gGlu-gGlu-gGlu-gGlu-gGlu-eLys(1,2)]",9.59,9.20,–,7.64,–,–

# Continued, values first:
pEC50 (hGLP1R; [1]),pEC50 (hGIPR; [2]),pEC50 (hGIPR; [3]),pEC50 (hNPY2R; [4]),pEC50 (hNPY2R; [5]),pEC50 (hGLP1R; [6]),Substance
9.72,9.89,9.09,7.74,–,–,"H-Y[Aib]EGTFTSDYSI[Aib]LEKQAE[Aib]AFVQWLIK([εLys-γGlu-γGlu-γGlu-γGlu-γGlu-C18 diacid])GGPSEGASLRHYYNWLTRQRY-NH2 [Compound 138, Y-Aib-E-G-T-F-T-S-D-Y-S-I-Aib-L-E-K-Q-A-E-Aib-A-F-V-Q-W-L-I-K(1,3)-GGPSEGASLRHYYNWLTRQRY-NH2.C18DA-gGlu-gGlu-gGlu-gGlu-gGlu-eLys(1,2)]"
9.55,9.59,8.80,8.10,7.57,–,"H-Y[Aib]EGTFTSDYSI[Aib]LEKQAQ[Aib]EFVQWLIK([AEEA-AEEA-γGlu-γGlu-γGlu-γGlu-γGlu-C20 diacid])GGPSSGASLRHYYNWLTRQRY-NH2 [Compound 36, Y-Aib-E-G-T-F-T-S-D-Y-S-I-Aib-L-E-K-Q-A-Q-Aib-E-F-V-Q-W-L-I-K(1,3)-GGPSSGASLRHYYNWLTRQRY-NH2.C20DA-gGlu-gGlu-gGlu-gGlu-gGlu-OEG-OEG(1,2)]"
10.10,10.15,–,7.96,7.68,–,"H-Y[Aib]EGTFTSDYSI[Aib]LEKQAQ[Aib]AFVQWLIK([εLys-γGlu-γGlu-γGlu-γGlu-γGlu-C18 diacid])GGPSEPASLRHYYNWLTRQRY-NH2 [Compound 148, Y-Aib-E-G-T-F-T-S-D-Y-S-I-Aib-L-E-K-Q-A-Q-Aib-A-F-V-Q-W-L-I-K(1,3)-GGPSEPASLRHYYNWLTRQRY-NH2.C18DA-gGlu-gGlu-gGlu-gGlu-gGlu-eLys(1,2)]"
–,9.60,–,7.87,–,7.76,"H-Y[Aib]EGTFTSDYSI[Aib]LEKQAQ[Aib]AFVEWLIK([AEEA-AEEA-γGlu-γGlu-γGlu-γGlu-C20 diacid])GGPEEPASLRHYYNWLTRQRY-NH2 [Compound 206, Y-Aib-E-G-T-F-T-S-D-Y-S-I-Aib-L-E-K-Q-A-Q-Aib-A-F-V-E-W-L-I-K(1,3)-GGPEEPASLRHYYNWLTRQRY-NH2.C20DA-gGlu-gGlu-gGlu-gGlu-OEG-OEG(1,2)]"
9.34,9.68,8.69,7.82,7.72,–,"H-Y[Aib]EGTFTSDYSI[Aib]LEKQAQ[Aib]AFVEWLIK([εLys-γGlu-γGlu-γGlu-γGlu-γGlu-γGlu-C20 diacid])GGPSSYVSIRHYYNWLTRQRY-NH2 [Compound 9, Y-Aib-E-G-T-F-T-S-D-Y-S-I-Aib-L-E-K-Q-A-Q-Aib-A-F-V-E-W-L-I-K(1,3)-GGPSSYVSIRHYYNWLTRQRY-NH2.C20DA-gGlu-gGlu-gGlu-gGlu-gGlu-gGlu-eLys(1,2)]"
9.89,9.64,8.73,7.83,–,8.41,"H-Y[Aib]EGTFTSDYSI[Aib]LEKQAQ[Aib]AFIEWLIK([γGlu-γGlu-γGlu-γGlu-C20 diacid])GGPSEGASLRHYYNWLTRQRY-NH2 [Compound 283, Y-Aib-E-G-T-F-T-S-D-Y-S-I-Aib-L-E-K-Q-A-Q-Aib-A-F-I-E-W-L-I-K(1,3)-GGPSEGASLRHYYNWLTRQRY-NH2.C20DA-gGlu-gGlu-gGlu-gGlu(1,2)]"
10.00,9.70,–,–,6.97,–,"H-Y[Aib]EGTFTSDYSI[Aib]LEKQAQ[Aib]AFVEWLIK([γGlu-γGlu-γGlu-γGlu-γGlu-C18 diacid])GGPSSPASLRHYYNWLTRQRY-NH2 [Compound 180, Y-Aib-E-G-T-F-T-S-D-Y-S-I-Aib-L-E-K-Q-A-Q-Aib-A-F-V-E-W-L-I-K(1,3)-GGPSSPASLRHYYNWLTRQRY-NH2.C18DA-gGlu-gGlu-gGlu-gGlu-gGlu(1,2)]"
9.54,9.70,8.74,7.86,–,7.85,"H-Y[Aib]EGTFTSDYSI[Aib]LEKQAQ[Aib]EFVQWLIK([γGlu-γGlu-γGlu-γGlu-C20 diacid])GGPSEGASLRHYYNWLTRQRY-NH2 [Compound 194, Y-Aib-E-G-T-F-T-S-D-Y-S-I-Aib-L-E-K-Q-A-Q-Aib-E-F-V-Q-W-L-I-K(1,3)-GGPSEGASLRHYYNWLTRQRY-NH2.C20DA-gGlu-gGlu-gGlu-gGlu(1,2)]"
